Test results published in ChEMBL document CHEMBL1201862, “PubChem BioAssay data set” (2004).
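How tested: cells in 96-well plates exposed to compound for 48 hours at five concentrations. GI50: concentration for 50% inhibition of growth.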 Calls of active or inactive are those of the source. Cut-off read from the data, not from the text of the source: active = GI50 up to about 1.1 µM and inactive = higher.

Key:
Test in all cases: inhibition of tumour cell growth, NCI panel, 48 h
786-0 = system: 786-0
ACHN = system: ACHN
CAKI-1 = system: CAKI-1
HCT-15 = system: HCT-15
HOP-62 = system: HOP-62
Hs-578T = system: Hs-578T
K562 = system: K562
LOX IMVI = system: LOX IMVI
MDA-N = system: MDA-N
MOLT-4 = system: MOLT-4
NCI-H226 = system: NCI-H226
SF-268 = system: SF-268
SF-295 = system: SF-295
SK-MEL-28 = system: SK-MEL-28
SK-MEL-2 = system: SK-MEL-2
SNB-75 = system: SNB-75
UACC-257 = system: UACC-257
HL-60 = system: HL-60
SF-539 = system: SF-539
SK-OV-3 = system: SK-OV-3

Row | SMILES | GI50 (786-0) | GI50 (ACHN) | GI50 (CAKI-1) | GI50 (HCT-15) [µM] | GI50 (HOP-62) | GI50 (Hs-578T) | GI50 (K562) | GI50 (LOX IMVI) | GI50 (MDA-N) | GI50 (MOLT-4) | GI50 (NCI-H226) | GI50 (SF-268) | GI50 (SF-295) | GI50 (SK-MEL-28) | GI50 (SK-MEL-2) | GI50 (SNB-75) | GI50 (UACC-257) | GI50 (HL-60) | GI50 (SF-539) | GI50 (SK-OV-3)
1 | c1ccc2sc(SCSc3nc4ccccc4s3)nc2c1 | 82.4 µM (inactive) | 74.8 µM (inactive) | > 100 µM (inactive) | 20.6 | > 100 µM (inactive) | > 100 µM (inactive) | 31.1 µM (inactive) | 47.2 µM (inactive) | 76.2 µM (inactive) | 8.81 µM (inactive) | > 100 µM (inactive) | > 100 µM (inactive) | 43.3 µM (inactive) | > 100 µM (inactive) | > 100 µM (inactive) | > 100 µM (inactive) | 28.5 µM (inactive) | – | – | –
2 | COc1ccc2nc(NCN3C(=O)c4ccccc4C3=O)sc2c1 | > 100 µM (inactive) | > 100 µM (inactive) | – | > 100 | > 100 µM (inactive) | > 100 µM (inactive) | > 100 µM (inactive) | > 100 µM (inactive) | > 100 µM (inactive) | > 100 µM (inactive) | – | > 100 µM (inactive) | > 100 µM (inactive) | > 100 µM (inactive) | > 100 µM (inactive) | > 100 µM (inactive) | > 100 µM (inactive) | > 100 µM (inactive) | > 100 µM (inactive) | > 100 µM (inactive)
3 | Oc1c2c(nc3cc4c(cc13)OCO4)-c1ccccc1CCC2 | > 50 µM (inactive) | > 50 µM (inactive) | > 50 µM (inactive) | > 50 | > 50 µM (inactive) | 15.9 µM (inactive) | > 50 µM (inactive) | 43.3 µM (inactive) | 18.9 µM (inactive) | > 50 µM (inactive) | > 50 µM (inactive) | > 50 µM (inactive) | 17.1 µM (inactive) | > 50 µM (inactive) | – | > 50 µM (inactive) | > 50 µM (inactive) | – | > 50 µM (inactive) | > 50 µM (inactive)
4 | CCOC(=O)c1ccc(-c2cc(C)no2)[nH]1 | > 100 µM (inactive) | > 100 µM (inactive) | 28.8 µM (inactive) | 30.2 | – | – | 32.5 µM (inactive) | > 100 µM (inactive) | 22 µM (inactive) | 42.1 µM (inactive) | > 100 µM (inactive) | > 100 µM (inactive) | > 100 µM (inactive) | > 100 µM (inactive) | > 100 µM (inactive) | 60.1 µM (inactive) | > 100 µM (inactive) | 67.5 µM (inactive) | > 100 µM (inactive) | > 100 µM (inactive)
5 | CCN(CC)c1ccc2cc(-c3nnc(-c4ccccc4)[nH]3)c(=O)oc2c1 | 14.3 µM (inactive) | 36.7 µM (inactive) | 26.9 µM (inactive) | > 100 | 7.28 µM (inactive) | 39.9 µM (inactive) | > 100 µM (inactive) | 94.4 µM (inactive) | > 100 µM (inactive) | > 100 µM (inactive) | – | 62.8 µM (inactive) | 24.5 µM (inactive) | > 100 µM (inactive) | 33 µM (inactive) | – | > 100 µM (inactive) | > 100 µM (inactive) | 13.8 µM (inactive) | 19.8 µM (inactive)
6 | CC(=O)OCC1OC(N2C(=O)NC(=O)C3C=C4CCCCC4=CC32)CC1OC(C)=O (configuration not stated) | > 100 µM (inactive) | > 100 µM (inactive) | – | > 100 | > 100 µM (inactive) | > 100 µM (inactive) | > 100 µM (inactive) | > 100 µM (inactive) | > 100 µM (inactive) | > 100 µM (inactive) | > 100 µM (inactive) | > 100 µM (inactive) | > 100 µM (inactive) | > 100 µM (inactive) | > 100 µM (inactive) | 56.4 µM (inactive) | > 100 µM (inactive) | 72.8 µM (inactive) | > 100 µM (inactive) | > 100 µM (inactive)
7 | Cc1ccc(C(=O)/C=C2\Nc3ccccc3N=C2NC23CC4CC(CC(C4)C2)C3)cc1 | > 10 µM (inactive) | > 10 µM (inactive) | > 10 µM (inactive) | > 10 | > 10 µM (inactive) | > 10 µM (inactive) | > 10 µM (inactive) | > 10 µM (inactive) | > 10 µM (inactive) | 7.8 µM (inactive) | – | > 10 µM (inactive) | > 10 µM (inactive) | > 10 µM (inactive) | – | > 10 µM (inactive) | > 10 µM (inactive) | > 10 µM (inactive) | > 10 µM (inactive) | > 10 µM (inactive)
8 | CC1=C(C(=O)Nc2cccc3c2C(=O)NC3=O)CC(C(=O)Nc2cccc3c2C(=O)NC3=O)=C(C)N1 | > 100 µM (inactive) | > 100 µM (inactive) | > 100 µM (inactive) | > 100 | > 100 µM (inactive) | > 100 µM (inactive) | > 100 µM (inactive) | > 100 µM (inactive) | > 100 µM (inactive) | > 100 µM (inactive) | – | > 100 µM (inactive) | > 100 µM (inactive) | > 100 µM (inactive) | > 100 µM (inactive) | 88.3 µM (inactive) | > 100 µM (inactive) | > 100 µM (inactive) | > 100 µM (inactive) | > 100 µM (inactive)
9 | c1ccc2c(c1)nc1ccccn12 | > 100 µM (inactive) | > 100 µM (inactive) | – | > 100 | > 100 µM (inactive) | 33.6 µM (inactive) | > 100 µM (inactive) | – | > 100 µM (inactive) | > 100 µM (inactive) | > 100 µM (inactive) | > 100 µM (inactive) | > 100 µM (inactive) | > 100 µM (inactive) | – | > 100 µM (inactive) | > 100 µM (inactive) | > 100 µM (inactive) | > 100 µM (inactive) | > 100 µM (inactive)
10 | Nn1c(SCC(=O)NCc2ccccc2)nc2ccccc2c1=O | 55.6 µM (inactive) | 40.6 µM (inactive) | 84.1 µM (inactive) | 67.8 | – | 57.5 µM (inactive) | 27.8 µM (inactive) | 49 µM (inactive) | 38.9 µM (inactive) | 19.1 µM (inactive) | 79.1 µM (inactive) | 38.2 µM (inactive) | 48.6 µM (inactive) | 92.5 µM (inactive) | 76.7 µM (inactive) | > 100 µM (inactive) | 58.2 µM (inactive) | – | > 100 µM (inactive) | –
11 | COc1cc(/C=C2\CCC/C(=C\c3ccc(OC(=O)CCCCC4CCSS4)c(OC)c3)C2=O)ccc1OC(=O)CCCCC1CCSS1 (configuration not stated) | > 100 µM (inactive) | > 100 µM (inactive) | – | > 100 | > 100 µM (inactive) | > 100 µM (inactive) | > 100 µM (inactive) | > 100 µM (inactive) | > 100 µM (inactive) | > 100 µM (inactive) | > 100 µM (inactive) | > 100 µM (inactive) | > 100 µM (inactive) | > 100 µM (inactive) | > 100 µM (inactive) | > 100 µM (inactive) | > 100 µM (inactive) | > 100 µM (inactive) | > 100 µM (inactive) | > 100 µM (inactive)
12 | Cc1cc(C)c2c(n1)S(=O)(=O)N(CCCN1CCN(c3cccc(Cl)c3)CC1)C(C(=O)c1ccccc1)=C2O | 19.5 µM (inactive) | 30.6 µM (inactive) | 12.9 µM (inactive) | 24.8 | 36.6 µM (inactive) | 65.8 µM (inactive) | 35.6 µM (inactive) | 6.01 µM (inactive) | 25.9 µM (inactive) | 7.82 µM (inactive) | – | 39 µM (inactive) | 31.8 µM (inactive) | 44.4 µM (inactive) | 32.4 µM (inactive) | – | 19.3 µM (inactive) | 31.6 µM (inactive) | 40.6 µM (inactive) | 33.7 µM (inactive)
13 | COc1ccc(C2CC(=O)CC(c3ccc(OC)cc3)C23C(=O)NC(=O)NC3=O)cc1 (configuration not stated) | 30.5 µM (inactive) | 31.3 µM (inactive) | 33.1 µM (inactive) | 67.8 | 13.8 µM (inactive) | – | 37.9 µM (inactive) | 30.5 µM (inactive) | 31.8 µM (inactive) | 19 µM (inactive) | 35.2 µM (inactive) | 44.1 µM (inactive) | 38 µM (inactive) | 17.2 µM (inactive) | 18.5 µM (inactive) | 25.8 µM (inactive) | 38.1 µM (inactive) | 27 µM (inactive) | > 100 µM (inactive) | –
14 | COc1ccc(C2CC3(c4ccccc4)ON=C(c4ccccc4)N3c3ccccc3S2)cc1 (configuration not stated) | > 100 µM (inactive) | > 100 µM (inactive) | > 100 µM (inactive) | > 100 | > 100 µM (inactive) | > 100 µM (inactive) | – | > 100 µM (inactive) | > 100 µM (inactive) | – | > 100 µM (inactive) | > 100 µM (inactive) | > 100 µM (inactive) | > 100 µM (inactive) | – | > 100 µM (inactive) | > 100 µM (inactive) | – | > 100 µM (inactive) | > 100 µM (inactive)
15 | CN(NC(=O)c1ccco1)C1=NCCCCN1 | > 100 µM (inactive) | > 100 µM (inactive) | – | > 100 | > 100 µM (inactive) | > 100 µM (inactive) | > 100 µM (inactive) | > 100 µM (inactive) | > 100 µM (inactive) | > 100 µM (inactive) | > 100 µM (inactive) | > 100 µM (inactive) | > 100 µM (inactive) | > 100 µM (inactive) | > 100 µM (inactive) | > 100 µM (inactive) | > 100 µM (inactive) | > 100 µM (inactive) | > 100 µM (inactive) | > 100 µM (inactive)
16 | C/C=C1/CN2CCC3(O)c4ccccc4N4C=C(C(=O)OC)C1CC2C43O (configuration not stated) | > 100 µM (inactive) | > 100 µM (inactive) | > 100 µM (inactive) | > 100 | > 100 µM (inactive) | > 100 µM (inactive) | 81.5 µM (inactive) | > 100 µM (inactive) | > 100 µM (inactive) | 84.1 µM (inactive) | – | > 100 µM (inactive) | > 100 µM (inactive) | > 100 µM (inactive) | – | > 100 µM (inactive) | > 100 µM (inactive) | > 100 µM (inactive) | > 100 µM (inactive) | > 100 µM (inactive)
